Results published in PMC4981696, “Non-target Site Tolerance Mechanisms Describe Tolerance to Glyphosate in Avena sterilis” (Frontiers in Plant Science, 2016).

Legend:
Test in all cases: phosphate release assay (EnzChek phosphate kit)
Details in all cases: partially purified leaf extract; 100 mM MOPS, 1 mM MgCl2, 10% glycerol, 2 mM sodium molybdate, 200 mM NaF; glyphosate 0-1000 μM; range is 95% CI; read-out: I50(μM)(95% CI)^a
[1] = test system: T1, EPSPS (A. sterilis E accession); assay type: biochemical, Avena sterilis
T1 construct: homeologous copies not distinguished
Excerpt: phosphate release assay (EnzChek phosphate kit) on EPSPS (A. sterilis E accession)

[2] = test system: T2, EPSPS (A. sterilis UE accession); assay type: biochemical, Avena sterilis
T2 construct: homeologous copies not distinguished
Excerpt: phosphate release assay (EnzChek phosphate kit) on EPSPS (A. sterilis UE accession)

[3] = molecular target: T3, EPSPS (L. rigidum S population) (Lolium rigidum, UniProt A0A5B9T5S8); assay type: biochemical
T3 sequence (A0A5B9T5S8 61-505): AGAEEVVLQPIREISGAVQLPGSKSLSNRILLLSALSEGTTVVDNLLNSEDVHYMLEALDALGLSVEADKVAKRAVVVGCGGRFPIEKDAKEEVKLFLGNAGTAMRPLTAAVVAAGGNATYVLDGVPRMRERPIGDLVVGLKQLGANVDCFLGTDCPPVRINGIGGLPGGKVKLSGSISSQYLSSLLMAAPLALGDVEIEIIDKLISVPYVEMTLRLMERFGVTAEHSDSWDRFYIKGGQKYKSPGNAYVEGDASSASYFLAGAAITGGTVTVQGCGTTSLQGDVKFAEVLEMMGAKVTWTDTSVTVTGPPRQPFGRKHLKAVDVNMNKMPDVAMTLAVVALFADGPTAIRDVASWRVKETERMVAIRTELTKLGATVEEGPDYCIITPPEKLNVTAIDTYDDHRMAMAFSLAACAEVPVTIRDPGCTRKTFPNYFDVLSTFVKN
Excerpt: phosphate release assay (EnzChek phosphate kit) on EPSPS (L. rigidum S population)

## O=C(O)CNCP(=O)(O)O [glyphosate]
[1]
  IC50: 53.5 µM
[2]
  IC50: 42.4 µM
[3]
  IC50: 5.1 µM
